The values below come from publication PMC11329928, “Design, synthesis and structure-activity relationship (SAR) studies of an unusual class of non-cationic fatty amine-tripeptide conjugates as novel synthetic antimicrobial agents” (Frontiers in Pharmacology, 2024).

Where a name gives a salt, the structure may show the parent alone. Read-outs that look alike come from different tables or passages of the source.

For assay [1], the system named is Pseudomonas aeruginosa PAO1. Put plainly: Growth inhibition screening of planktonic cultures (OD550/600). Format: cell-based. Also noted: key: (+++) full inhibition; (++) partial inhibition; (+) growth retardation; -: (−) no effect. The note with it: P. aeruginosa PAO1, 50 and 100 μM compound added at T1, OD550/600 followed 10 h, 37°C. The procedure, abridged:
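Early exponential-phase cultures (OD550/600 c. a. 0.15–0.2) were treated with DICAMs at 50 and 100 μM final, diluted from DMSO stocks into medium, and incubated 10 h at 37°C. Turbidity (OD550/600) was read every 20 min against untreated controls to track growth inhibition and lysis.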

Assay [2] concerns human HeLa cervix carcinoma cells. Format: cell-based. Here is the method:
(§1) DICAM’s cytotoxicity was determined employing a modified MTT assay as described elsewhere ([Antúnez-Mojica et al., 2016]) using human lung carcinoma epithelial cells A549, human fetal lung fibroblasts IMR-90, and human HeLa cervix carcinoma cells treated with increasing concentrations of DICAMs (0.8–200 µM range). A549 cells were grown in RPMI 1640 (Gibco; Fisher Scientific, Spain) supplemented with 10% FCS, 2 mM glutamine, 100 IU/mL penicillin and 100 μg/mL streptomycin. IMR-90 and HeLa cells were cultured in DMEM (Gibco; Fisher Scientific, Spain) supplemented with 10% FCS, 2 mM L-glutamine, 1 mM pyruvate, […] penicillin, 100 μg/mL streptomycin and 40 μg/mL gentamycin. Cell viability was assessed after 48 h exposure to DICAMs. Vinblastine was used as a positive control. IC50 value is the concentration that gives 50% inhibition of cell growth and was determined using SigmaPlot (Systat) fitting to a Four Parameter Logistic curve.

Assay [3] deals with human lung carcinoma epithelial cells A549. Format: cell-based. Here is the method: as §1
A short description of assay [4]: Calcein release from LUVs. As to conditions: 10 μM DICAM, 25°C; for Permeation of DOPE:POPG:CL (80:15:5) LUVs, result in words: vesicle buffer pH 7.4, calcein release; for Leak of calcein from pure POPG LUVs, result in words: vesicle buffer (10 mM Tris, 140 mM NaCl, 0.5 mM EDTA, pH 7.4), fluorescence 480/550 nm, normalised to 0.025% Triton-X100. Here is the method: LUVs were prepared for calceine liberation assays as described ([Chongsiriwatana and Barron, 2009]). Lipid composition (mole %) of LUVs was: POPG (100), POPG:CL (80:20), POPG:CL:DOPE ([…]), and POPG:CL:GlcDAG (75:5:20). Briefly, the nitrogen-dried lipid mixture was dissolved at 1.25 mM with 100 mM calceine in vesicle buffer (10 mM Tris, 140 mM NaCl, 0.5 mM EDTA, pH 7.4) followed by five thaw-freeze cycles. Calceine-entrapped LUVs were prepared by extrusion through 100 nm polycarbonate membranes (Avanti Polar Lipids). Non-entrapped calceine was separated from LUVs by gel filtration on a Sephacryl® S200-HR column (Sigma). LUVs permeabilization was monitored at 25°C by fluorescence emission at 550 nm (λex = 480 nm) as a function of time in a Fluoromax-4 spectrofluorometer (Horiba, France) using agitation. Signal stabilization of samples (1,500 µL vesicle buffer plus 45 µL LUVs) was recorded for 5 min before 10 µM final DICAM addition, and calcein release was monitored for a maximum of 20 min. After incubation, samples were solubilized in Triton X-100 (0.025%) and the fluorescence signal recorded thereafter was used to normalize the entire data set. Solubilization of DICAM-untreated LUVs in Triton X-100 was used as a positive control. No perturbation was detected in controls containing DMSO.

The subject of another assay is S. aureus T. Put plainly: Growth inhibition and bacterial survival at 100 µM (Figure 6). The note with it: 100 µM compound, BHI, 37°C; for S. aureus T growth, % of controls: five or more hours of incubation, increment in OD600 vs controls. Format: cell-based, Staphylococcus aureus. How it is done:
FIGURE 6 Antimicrobial effect of DICAMs active on S. aureus ^T. (A) Growth inhibition after culture challenge at 37°C with 100 μM of compound for 2, 5, and 6.5 h in BHI. Bars represent the percentage of the increment in OD600 for treated samples compared to controls and color goes from light to dark as time increases. “X” represents Ala, Asn, Glu or Orn. (B) Dependence of the kinetics of growth (OD600) (left panel) and bacterial population (right panel) on DICAM 14 dose. Bars in light and dark grey show bacterial populations of the initial inoculum and after incubation (3 and 5 h, respectively). Data shown are the average of three replicates, with error bars indicating the standard deviation of the mean.
Susceptibility to DICAMs was first tested by growth-inhibition assays at 50 and 100 μM of compound. Briefly, working solutions at 5 mM or 10 mM DICAM in pure DMSO were prepared from DICAM stocks (40 mM in pure DMSO) and diluted with fresh culture medium to 5× the desired final concentration. Aliquots (50 µL) of these solutions were added to 200 µL of bacterium cultures grown to early exponential phase (OD550/600 c. a. 0.15–0.2 in sterile 96-well plates (Cultek, Spain). Incubation continued for 10 h at 37°C and turbidity (OD550/600) values were measured every 20 min to monitor growth and lysis, using a VersaMax microplate reader (Molecular Devices; United Kingdom). Next, the activity dependence on DICAM’s dose was examined by measuring the turbidity of treated and untreated cultures as a function of time. Also, the decay of bacterial viability (CFU/mL) at selected times of treatment was assessed by colony counting on LB-agar or TSA plates after overnight incubation at 37°C. By default, 10 μL of 10-fold serially diluted samples were plated, which set the lower detection limit at 10^2 CFU/mL (10^1 CFU/mL when 100 μL of the undiluted sample was seeded).

Regarding `CCCCCCCCCCCCCCCCCCNC(=O)[C@H](CCC(=O)O)NC(=O)[C@H]1CCCN1C(=O)[C@H](CC(N)=O)NC(=O)OCc1ccccc1` [DICAM 1, Cbz-Asn- Pro -Glu-NH-C18H37], the “Growth halt or lysis (50/100 μM), Pa” value in assay [1] is “-”. Besides, the values for the IC50 in assay [2] (48 h) and in assay [3] (48 h) were 29 ± 2 µM and 45 ± 6 µM, respectively.
For `CCCCCCCCCCCCCCCCCCNC(=O)[C@H](CCC(=O)O)NC(=O)[C@H]1CCCN1C(=O)[C@@H](N)CC(N)=O` [DICAM 2, Asn- Pro -Glu-NH-C18H37 ·HCl], the “Growth halt or lysis (50/100 μM), Pa” value in assay [1] was “-”. In addition, the IC50 (as a rule, the concentration needed to halve the response being measured) in assay [2] (48 h) came to 42 ± 2 µM; in assay [3] (48 h), 42 ± 5 µM. Further, in assay [4], the “Permeation of DOPE:POPG:CL (80:15:5) LUVs, result in words” value (from here on “Permeation of DOPE:POPG:CL”) is recorded as “did not permeate”.
As for `CCCCCCCCCCCCCCCCCCNC(=O)[C@H](CCC(=O)O)NC(=O)[C@H]1CCCN1C(=O)[C@H](C)NC(=O)OCc1ccccc1` [DICAM 3, Cbz-Ala- Pro -Glu-NH-C18H37], the “Growth halt or lysis (50/100 μM), Pa” value in assay [1] is “-”. Moreover, the IC50 in assay [2] (48 h) was found to be 49.2 ± 1.5 µM; in assay [3] (48 h), 59.2 ± 0.7 µM.
In the case of `CCCCCCCCCCCCCCCCCCNC(=O)[C@H](CCC(=O)O)NC(=O)[C@H]1CCCN1C(=O)[C@H](C)N` [DICAM 4, Ala- Pro -Glu-NH-C18H37 ·HCl], the “Growth halt or lysis (50/100 μM), Pa” value in assay [1] is on record as “-”. For the same compound, the IC50 in assay [2] (48 h) is 32 ± 2 µM; in assay [3] (48 h), no less than 25 µM. Besides, in the assay with S. aureus T, the “S. aureus T growth, % of controls” value was “≈ 25 % of controls”. Also, the “Leak of calcein from pure POPG LUVs, result in words” value (shortened to “Leak of calcein from pure POPG LUVs”) in assay [4] is “full”. The “Permeation of DOPE:POPG:CL” value in assay [4] was “did not permeate”.
Turning to `CCCCCCCCCCCCCCCCNC(=O)[C@H](CCC(=O)O)NC(=O)[C@H]1CCCN1C(=O)[C@H](CC(N)=O)NC(=O)OCc1ccccc1` [DICAM 10, Cbz-Asn- Pro -Glu-NH-C16H33], the “Growth halt or lysis (50/100 μM), Pa” value in assay [1] is listed as “-”. For the same compound, the IC50 in assay [2] (48 h) is 28 ± 0.7 µM; in assay [3] (48 h), 35 ± 2 µM.
For `CCCCCCCCCCCCCCCCCCNC(=O)[C@H](C)NC(=O)[C@H]1CCCN1C(=O)[C@H](C)N` [DICAM 14, Ala- Pro -Ala-NH-C18H37 · HCl], the “Growth halt or lysis (50/100 μM), Pa” value in assay [1] is given as “-”. Besides, the IC50 in assay [2] (48 h) was found to be 6.3 ± 0.7 µM; in assay [3] (48 h), 8 ± 0.3 µM. Further, in the assay on S. aureus T (S. aureus T, 5 h incubation), the “Permanent fall in bacterial survival” value is “≈ 85%”.
`CCCCCCCCCCCCCCCCCCNC(=O)[C@H](CCC(=O)O)NC(=O)[C@H]1CCCN1C(=O)[C@H](CCC(=O)O)NC(=O)OCc1ccccc1` [DICAM 19, Cbz-Glu- Pro -Glu-NH-C18H37]: the “Growth halt or lysis (50/100 μM), Pa” value in assay [1] is on record as “-”. Further, the figures for the IC50 in assay [2] (48 h) and in assay [3] (48 h) were 46 ± 2 µM and 45 ± 2 µM, respectively.
`CCCCCCCCCCCCCCCCCCNC(=O)[C@H](CCC(=O)O)NC(=O)[C@H]1CCCN1C(=O)[C@@H](N)CCC(=O)O` [DICAM 20, Glu- Pro -Glu-NH-C18H37 · HCl]: the “Growth halt or lysis (50/100 μM), Pa” value in assay [1] is reported as “-”. In addition, the IC50 in assay [2] (48 h) came out at 59.2 ± 0.1 µM; in assay [3] (48 h), 91 ± 2 µM. For the same compound, the “Leak of calcein from pure POPG LUVs” value in assay [4] was “partial”.
`CCCCCCCCCCCCCCCCCCNC(=O)[C@H](CCC(=O)O)NC(=O)[C@H]1CCCN1C(=O)[C@H](CCCN)NC(=O)OCc1ccccc1` [DICAM 21, Cbz-Orn- Pro -Glu-NH-C18H37]: in assay [1], the “Growth halt or lysis (50/100 μM), Pa” value was “-”. Besides, in assay [4], the “Permeation of DOPE:POPG:CL” value is “able to permeate and release calcein”.
Take `CCCCCCCCCCCCCCCCCCNC(=O)[C@H](CCC(=O)O)NC(=O)[C@H]1CCCN1C(=O)[C@@H](N)CCCN` [DICAM 22, Orn- Pro -Glu-NH-C18H37 · HCl]: in assay [1], the “Growth halt or lysis (50/100 μM), Pa” value was “-”. In addition, the IC50 in assay [2] (48 h) was determined as 57.2 ± 0.4 µM; in assay [3] (48 h), 59.6 ± 0.9 µM.
For the compound `CCCCCCCCCCCCCCCCCCNC(=O)[C@H](CCC(=O)O)NC(=O)[C@H]1CCCN1C(=O)[C@H](C)NC(C)=O` [DICAM 24, Ac-Ala- Pro -Glu-NH-C18H37], the IC50 worked out at 28.4 ± 0.2 µM in assay [2] (48 h) and 40 ± 3 µM in assay [3] (48 h).
As to “Ala - Pro -Glu-NH-C18H37 · HCl [DICAM 23]”, in assay [1], the “Growth halt or lysis (50/100 μM), Pa” value was “-”. Also, the IC50 was found to be 13.4 ± 0.9 µM in assay [2] (modified MTT, 48 h exposure, 0.8–200 µM, four parameter logistic fit, ± SD, at least three independent experiments, read-out: IC50 HeLa) and 80.6 ± 0.2 µM in assay [3] (modified MTT, 48 h exposure, 0.8–200 µM, four parameter logistic fit, ± SD, at least three independent experiments, read-out: IC50 A549). Besides, in the assay with S. aureus T, the “S. aureus T growth, % of controls” value is listed as “≈ 25 % of controls”. In addition, the “Leak of calcein from pure POPG LUVs” value in assay [4] is “full”.
